In the NIST ThermoML archive (doi:10.1021/je400055v):

Test: xn = mol fraction of the nth substance listed
Conditions: Liquid, Vibrating tube method

CCCCCCCCCCC [undecane] + CCCCCCC
Conditions | mass density [kg/m3]
352.96 K, 20000 kPa, x2 = 0.05 | 712.1
352.96 K, 20000 kPa, x2 = 0.5063 | 690.9
352.96 K, 21000 kPa, x2 = 0.05 | 712.9
352.96 K, 21001 kPa, x2 = 0.5063 | 691.8
352.96 K, 22001 kPa, x2 = 0.05 | 713.8
352.96 K, 22050 kPa, x2 = 0.5063 | 692.7
352.96 K, 23000 kPa, x2 = 0.05 | 714.6
352.96 K, 23000 kPa, x2 = 0.5063 | 693.6
352.96 K, 24000 kPa, x2 = 0.05 | 715.4
352.96 K, 24000 kPa, x2 = 0.5063 | 694.5
352.96 K, 25000 kPa, x2 = 0.05 | 716.2
352.96 K, 25000 kPa, x2 = 0.5063 | 695.3
352.97 K, 1000 kPa, x2 = 0.7482 | 654
352.97 K, 2000 kPa, x2 = 0.7482 | 655.3
352.97 K, 3000 kPa, x2 = 0.7482 | 656.6
352.97 K, 4000 kPa, x2 = 0.7482 | 657.8
352.97 K, 5000 kPa, x2 = 0.7482 | 659.1
352.97 K, 6000 kPa, x2 = 0.7482 | 660.3
352.97 K, 7000 kPa, x2 = 0.7482 | 661.5
352.97 K, 8000 kPa, x2 = 0.7482 | 662.7
352.97 K, 9000 kPa, x2 = 0.7482 | 663.9
352.97 K, 10000 kPa, x2 = 0.7482 | 665
352.97 K, 11000 kPa, x2 = 0.7482 | 666.1
352.97 K, 12000 kPa, x2 = 0.7482 | 667.2
352.97 K, 13000 kPa, x2 = 0.7482 | 668.3
352.97 K, 14000 kPa, x2 = 0.7482 | 669.4
352.97 K, 15000 kPa, x2 = 0.7482 | 670.5
352.97 K, 16000 kPa, x2 = 0.7482 | 671.5
352.97 K, 17000 kPa, x2 = 0.7482 | 672.5
352.97 K, 18000 kPa, x2 = 0.7482 | 673.5
352.97 K, 19000 kPa, x2 = 0.7482 | 674.5
352.97 K, 20000 kPa, x2 = 0.7482 | 675.5
352.97 K, 21000 kPa, x2 = 0.7482 | 676.5
352.97 K, 22000 kPa, x2 = 0.7482 | 677.4
352.97 K, 23000 kPa, x2 = 0.7482 | 678.3
352.97 K, 24000 kPa, x2 = 0.7482 | 679.2
352.97 K, 25000 kPa, x2 = 0.7482 | 680.2
352.99 K, 1015 kPa, x2 = 0.2346 | 685.9
352.99 K, 2016 kPa, x2 = 0.2346 | 687
352.99 K, 3016 kPa, x2 = 0.2346 | 688.1
352.99 K, 4017 kPa, x2 = 0.2346 | 689.2
352.99 K, 5018 kPa, x2 = 0.2346 | 690.2
352.99 K, 6019 kPa, x2 = 0.2346 | 691.3
352.99 K, 7020 kPa, x2 = 0.2346 | 692.3
352.99 K, 8020 kPa, x2 = 0.2346 | 693.3
352.99 K, 9021 kPa, x2 = 0.2346 | 694.4
352.99 K, 10022 kPa, x2 = 0.2346 | 695.3
352.99 K, 11022 kPa, x2 = 0.2346 | 696.3
352.99 K, 12023 kPa, x2 = 0.2346 | 697.3
352.99 K, 13024 kPa, x2 = 0.2346 | 698.2
352.99 K, 14025 kPa, x2 = 0.2346 | 699.2
352.99 K, 15026 kPa, x2 = 0.2346 | 700.1
352.99 K, 16027 kPa, x2 = 0.2346 | 701
352.99 K, 17028 kPa, x2 = 0.2346 | 701.9
352.99 K, 18030 kPa, x2 = 0.2346 | 702.8
352.99 K, 19030 kPa, x2 = 0.2346 | 703.7
352.99 K, 20031 kPa, x2 = 0.2346 | 704.5
352.99 K, 21066 kPa, x2 = 0.2346 | 705.4
352.99 K, 22068 kPa, x2 = 0.2346 | 706.3
352.99 K, 23071 kPa, x2 = 0.2346 | 707.1
352.99 K, 24073 kPa, x2 = 0.2346 | 707.9
352.99 K, 25076 kPa, x2 = 0.2346 | 708.7
362.87 K, 1001 kPa, x2 = 0.9511 | 628.1
362.87 K, 2000 kPa, x2 = 0.9511 | 629.7
362.87 K, 3000 kPa, x2 = 0.9511 | 631.1
362.87 K, 4000 kPa, x2 = 0.9511 | 632.6
362.87 K, 5000 kPa, x2 = 0.9511 | 634
362.87 K, 6000 kPa, x2 = 0.9511 | 635.4
362.87 K, 7000 kPa, x2 = 0.9511 | 636.8
362.87 K, 8000 kPa, x2 = 0.9511 | 638.2
362.87 K, 9000 kPa, x2 = 0.9511 | 639.5
362.87 K, 10000 kPa, x2 = 0.9511 | 640.8
362.87 K, 11000 kPa, x2 = 0.9511 | 642.1
362.87 K, 12000 kPa, x2 = 0.9511 | 643.4
362.87 K, 13000 kPa, x2 = 0.9511 | 644.6
362.87 K, 14001 kPa, x2 = 0.9511 | 645.8
362.87 K, 15001 kPa, x2 = 0.9511 | 647
362.87 K, 16000 kPa, x2 = 0.9511 | 648.2
362.87 K, 17001 kPa, x2 = 0.9511 | 649.3
362.87 K, 18001 kPa, x2 = 0.9511 | 650.5
362.87 K, 19000 kPa, x2 = 0.9511 | 651.6
362.87 K, 20000 kPa, x2 = 0.9511 | 652.7
362.87 K, 21001 kPa, x2 = 0.9511 | 653.8
362.87 K, 22000 kPa, x2 = 0.9511 | 654.9
362.87 K, 23001 kPa, x2 = 0.9511 | 655.9
362.87 K, 24000 kPa, x2 = 0.9511 | 656.9
362.87 K, 25000 kPa, x2 = 0.9511 | 658
362.91 K, 1000 kPa, x2 = 0.7482 | 645.5
362.91 K, 1023 kPa, x2 = 0.2346 | 678.2
362.91 K, 2000 kPa, x2 = 0.7482 | 646.9
362.91 K, 2024 kPa, x2 = 0.2346 | 679.4
362.91 K, 3000 kPa, x2 = 0.7482 | 648.3
362.91 K, 3026 kPa, x2 = 0.2346 | 680.6
